Experimental data: ChEMBL document CHEMBL1140885, “Novel naphthalimide-amino acid conjugates with flexible leucine moiety as side chain: design, synthesis and potential antitumor activity” (Bioorg Med Chem, 2009); call rule not given here

Key:
HeLa = experiment: Cytotoxicity against human HeLa cells after 48 hrs by MTT assay; format: functional, cell-based
A549 = experiment: Cytotoxicity against human A549 cells after 72 hrs by SRB assay; format: functional, cell-based; conditions: A549, 72 h
P388 = experiment: Cytotoxicity against mouse P388 cells after 48 hrs by MTT assay; format: functional, cell-based; conditions: P388, 48 h
HL-60 = experiment: Cytotoxicity against human HL60 cells after 48 hrs by MTT assay; format: functional, cell-based; conditions: HL-60, 48 h
MCF7 = experiment: Cytotoxicity against human MCF7 cells after 48 hrs by MTT assay; format: functional, cell-based; conditions: MCF7, 48 h
HCT-8 = experiment: Cytotoxicity against human HCT8 cells after 48 hrs by MTT assay; format: functional, cell-based; conditions: HCT-8, 48 h
A-375 = experiment: Cytotoxicity against human A375 cells after 48 hrs by MTT assay; format: functional, cell-based; conditions: A-375, 48 h
Albumin = Albumin (Bos taurus, UniProt P02769); experiment: Binding affinity to bovine serum albumin at 10 uM after 15 mins by spectrophotometric titration; format: ADME; conditions: cattle, isolated protein, 0.25 h
Chain of Albumin (P02769 whole entry): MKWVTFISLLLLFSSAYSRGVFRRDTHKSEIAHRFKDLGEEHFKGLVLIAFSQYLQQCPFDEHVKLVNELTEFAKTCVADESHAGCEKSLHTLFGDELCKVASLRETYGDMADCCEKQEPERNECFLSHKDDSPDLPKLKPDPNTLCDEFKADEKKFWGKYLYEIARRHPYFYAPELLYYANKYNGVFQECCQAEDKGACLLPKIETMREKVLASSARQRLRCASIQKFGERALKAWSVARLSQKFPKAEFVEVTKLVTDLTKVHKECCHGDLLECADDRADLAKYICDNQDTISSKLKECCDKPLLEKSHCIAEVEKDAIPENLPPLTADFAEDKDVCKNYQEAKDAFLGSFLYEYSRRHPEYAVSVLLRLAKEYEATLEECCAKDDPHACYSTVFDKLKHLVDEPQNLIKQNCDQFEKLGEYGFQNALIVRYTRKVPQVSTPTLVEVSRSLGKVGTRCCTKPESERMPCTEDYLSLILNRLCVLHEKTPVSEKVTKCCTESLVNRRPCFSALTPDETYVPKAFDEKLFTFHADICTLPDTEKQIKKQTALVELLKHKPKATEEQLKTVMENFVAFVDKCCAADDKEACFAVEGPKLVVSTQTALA

DNA [1] = experiment: Binding affinity to calf thymys DNA assessed as increase in viscosity; format: nucleic-acid assay; conditions: Bos taurus
DNA [2] = experiment: Binding affinity to calf thymus DNA by fluorescence titration; format: nucleic-acid assay; conditions: Bos taurus

Row | Activity (Albumin) | Activity (DNA [1]) | Ka (DNA [2]) [×10⁴ /M] | Structure (SMILES) | IC50 (HeLa) [µM] | IC50 (A549) [µM] | IC50 (P388) [µM] | IC50 (HL-60) [µM] | IC50 (MCF7) [µM] | IC50 (HCT-8) [µM] | IC50 (A-375) [µM]
1 | Active |  |  | COc1cc(-c2ccc(NC(=O)[C@H](CC(C)C)N3C(=O)c4cccc5c(NCCSc6ccccc6)ccc(c45)C3=O)c(OC)c2)ccc1N | > 50 | > 50 | > 50 | > 50 | 9.45 | > 50 | > 50
2 | Active |  |  | CC(C)C[C@@H](C(=O)Nc1ccc(S(=O)(=O)c2ccc(N)cc2)cc1)N1C(=O)c2cccc3c(NCCSc4ccccc4)ccc(c23)C1=O | > 50 | > 50 | > 50 | > 50 | 24.6 | > 50 | > 50
3 |  |  |  | COc1cc(-c2ccc(NC(=O)[C@H](CC(C)C)N3C(=O)c4cccc5c(NCCN(C)C)ccc(c45)C3=O)c(OC)c2)ccc1N | 6.74 | 25.1 | 7.67 | 22.8 | 15 | > 50 | 6.51
4 | Active |  |  | CC(C)C[C@@H](C(=O)Nc1ccc(S(N)(=O)=O)cc1)N1C(=O)c2cccc3c(NCCSc4ccccc4)ccc(c23)C1=O | > 50 | > 50 | > 50 | > 50 | 12.6 | > 50 | > 50
5 |  |  |  | CC(C)C[C@@H](C(=O)Nc1ccc(S(=O)(=O)c2ccc(N)cc2)cc1)N1C(=O)c2cccc3c(NCCN(C)C)ccc(c23)C1=O | > 50 | 17.2 | > 50 | > 50 | 8.64 | > 50 | > 50
6 |  | Dose-dependent effect | 4.92 | CC(C)C[C@@H](C(=O)Nc1ccc(S(N)(=O)=O)cc1)N1C(=O)c2cccc3c(NCCN(C)C)ccc(c23)C1=O | 8.09 | > 50 | 7.23 | 17.8 | 8.65 | > 50 | 6.6
